According to ChEMBL document CHEMBL1201862, “PubChem BioAssay data set” (2004):
Active and inactive are the calls of the source.

What was measured:
[1] = target: T1, Neuropeptide Y receptor type 1 (Homo sapiens, UniProt P25929); test: IC50 of human NPY-Y1 blockers – cell-based, dose response (AID 1277); assay type: functional
T1 sequence (P25929 whole entry): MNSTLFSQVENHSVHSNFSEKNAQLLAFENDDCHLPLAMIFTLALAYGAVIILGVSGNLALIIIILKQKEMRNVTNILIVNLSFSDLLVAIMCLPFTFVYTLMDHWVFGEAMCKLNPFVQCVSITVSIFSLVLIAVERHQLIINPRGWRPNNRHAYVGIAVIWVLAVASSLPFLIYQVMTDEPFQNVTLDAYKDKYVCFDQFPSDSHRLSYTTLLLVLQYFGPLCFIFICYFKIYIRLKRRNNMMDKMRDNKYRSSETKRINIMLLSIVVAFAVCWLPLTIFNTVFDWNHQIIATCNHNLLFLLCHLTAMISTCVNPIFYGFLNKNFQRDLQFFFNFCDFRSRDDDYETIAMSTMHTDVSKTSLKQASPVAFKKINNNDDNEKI

[2] = target: Neuropeptides B/W receptor type 1 (Homo sapiens, UniProt P48145); test: Fluorescence-based dose response cell-based high throughput screening assay to identify antagonists of the G-protein coupled receptor 7 (GPR7). [Related pubchem assays: 1952 (Screening assay (GPR7 antagonists).), 1880 (Summary AID.)]; assay type: functional
Sequence of Neuropeptides B/W receptor type 1 (P48145 whole entry): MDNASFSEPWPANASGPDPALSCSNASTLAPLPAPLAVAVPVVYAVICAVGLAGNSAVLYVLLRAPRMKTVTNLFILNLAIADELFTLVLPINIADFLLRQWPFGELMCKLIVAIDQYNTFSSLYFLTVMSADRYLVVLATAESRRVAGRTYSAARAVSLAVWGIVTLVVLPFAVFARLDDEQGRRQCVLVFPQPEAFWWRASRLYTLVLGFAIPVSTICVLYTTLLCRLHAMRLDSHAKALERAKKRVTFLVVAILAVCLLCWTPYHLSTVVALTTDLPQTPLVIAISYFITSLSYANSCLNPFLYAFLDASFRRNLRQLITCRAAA

[3] = target: T2, Neuropeptide Y receptor type 2 (Homo sapiens, UniProt P49146); test: IC50 for human NPY-Y2 blockade – cell-based, counter-screen for NPY-Y1 antagonist project, dose response (AID 1278); assay type: functional
T2 sequence (P49146 whole entry): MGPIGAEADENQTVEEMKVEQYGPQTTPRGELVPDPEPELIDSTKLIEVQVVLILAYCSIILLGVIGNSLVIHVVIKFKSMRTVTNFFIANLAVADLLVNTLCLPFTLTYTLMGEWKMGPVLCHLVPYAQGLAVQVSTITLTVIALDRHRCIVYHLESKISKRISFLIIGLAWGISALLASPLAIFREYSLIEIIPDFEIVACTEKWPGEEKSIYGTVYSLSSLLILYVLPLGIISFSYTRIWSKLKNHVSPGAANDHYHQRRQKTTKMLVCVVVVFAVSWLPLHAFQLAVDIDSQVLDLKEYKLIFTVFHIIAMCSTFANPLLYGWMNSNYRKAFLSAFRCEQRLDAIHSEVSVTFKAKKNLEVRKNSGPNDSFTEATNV

[4] = target: Melanin-concentrating hormone receptor 1 (Homo sapiens, UniProt Q99705); test: Fluorescence-based counterscreen for antagonists of the G-protein coupled receptor 7 (GPR7): cell-based high throughput dose response assay to identify antagonists of the melanin-concentrating hormone receptor 1 (MCHR1).; assay type: functional
NADPH oxidase 1 = NADPH oxidase 1 (Homo sapiens, UniProt Q9Y5S8); assay type: functional, cell-based;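 further: Cell-based assay with luminescence read-out, IC50 derived from inhibitor dose-response curves; intracellular ROS from endogenous NOX1 in intact HT29 colon cancer cells; potency of inhibitors that lower the ROS luminescence signal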
Sequence of NADPH oxidase 1 (Q9Y5S8 whole entry): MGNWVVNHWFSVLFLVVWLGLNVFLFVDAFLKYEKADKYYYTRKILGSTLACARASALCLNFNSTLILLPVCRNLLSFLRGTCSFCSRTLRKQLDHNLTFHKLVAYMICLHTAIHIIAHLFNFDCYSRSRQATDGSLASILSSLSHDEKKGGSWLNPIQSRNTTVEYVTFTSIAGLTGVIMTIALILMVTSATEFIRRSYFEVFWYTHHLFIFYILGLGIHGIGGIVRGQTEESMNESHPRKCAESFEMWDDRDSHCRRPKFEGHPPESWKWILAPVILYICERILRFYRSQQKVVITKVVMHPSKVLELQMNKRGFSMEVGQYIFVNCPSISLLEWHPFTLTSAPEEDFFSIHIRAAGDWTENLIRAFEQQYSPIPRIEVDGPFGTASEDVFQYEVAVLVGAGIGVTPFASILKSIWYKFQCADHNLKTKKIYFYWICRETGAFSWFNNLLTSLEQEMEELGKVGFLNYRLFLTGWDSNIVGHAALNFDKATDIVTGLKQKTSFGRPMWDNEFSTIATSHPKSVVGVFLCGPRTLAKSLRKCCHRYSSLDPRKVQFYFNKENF

Nonstructural protein 1 = Nonstructural protein 1 (Influenza A virus, UniProt Q194T2); assay type: functional, Influenza A virus (A/California/07/2009(H1N1))
[5] = Luminescence-based counterscreen assay for KLF5 inhibitors: dose response cell-based high throughput screening assay to identify cytotoxic compounds using the IEC-6 intestinal epithelial cell line. [Related pubchem assays: 1700 (Primary screen.), 1834 (Confirmation screen.), 1858 (Summary AID.), 1905 (Counterscreen.)]; assay type: functional
cells [6] = assay type: functional, cell-based
Streptococcus = test: GAS UMAA2166 growth inhibition – luminescence, BacTiterGlo, counter-screen for streptokinase expression inhibitor project, dose response (AID 1915); assay type: functional, organism-based;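 further: potency for reduction of bacterial viability or growth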
cells [7] = assay type: functional, cell-based; remark: listed apart in the source
[8] = tested on: Streptococcus sp. 'group A'; test: Streptococcus pyogenes SK(-)GAS viability under kanamycin – luminescence, BacTiterGlo, confirmation, counter-screen for streptokinase expression inhibitor project, dose response (AID 1900); assay type: functional, organism-based
Vero [9] = test: Vero cell viability after compound exposure – synthesized analogs, set II, cytotoxicity control for West Nile virus antiviral project, SAR follow-up (AID 2402); assay type: functional; settings: Chlorocebus sabaeus
[10] = A Cell Based Assay for the Identification of Probe candidate Compounds with Anti- Venezuelan Equine Encephalitis virus. [Related pubchem assays: 2409, 2419, 1621, 2238, 2405, 2024, 2065, 2402, 2414, 1635, 1650, 2244 ]; assay type: functional
Vero [11] = test: Vero 76 cell viability after compound exposure – Vero 76 cells, synthesized analogs, cytotoxicity control for West Nile virus antiviral project, SAR follow-up (AID 2414); assay type: functional; settings: Chlorocebus sabaeus
Bcl-2-like protein 10 = target: T3, Bcl-2-like protein 10 (Homo sapiens, UniProt Q9HD36); test: Concentration-response of Bcl-B inhibitors by biochemical FP with TR3 (AID 1243); assay type: functional
T3 sequence (Q9HD36 whole entry): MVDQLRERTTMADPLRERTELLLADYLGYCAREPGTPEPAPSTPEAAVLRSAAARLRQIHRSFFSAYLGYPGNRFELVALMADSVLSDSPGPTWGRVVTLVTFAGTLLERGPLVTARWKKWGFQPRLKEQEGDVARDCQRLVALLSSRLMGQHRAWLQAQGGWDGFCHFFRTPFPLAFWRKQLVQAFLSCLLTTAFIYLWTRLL

[12] = target: Glyceraldehyde-3-phosphate dehydrogenase (Homo sapiens, UniProt P04406)
[13] = target: Nucleotide-binding oligomerization domain-containing protein 2 (Homo sapiens, UniProt Q9HC29); test: inhibition of MDP-driven NOD2 NF-kB reporter – cell-based, set 3, SAR follow-up (AID 2799); assay type: functional
HEK293 = test: SAR analysis of compounds that are cytotoxic to HEK293 - Set 3. [Related pubchem assays (depositor defined):AID1575, AID1578, AID1848, AID1849, AID2001, AID2333, AID2334, AID2335, AID2337, AID2469]; assay type: functional, cell-based; settings: Homo sapiens
Tumor necrosis factor = Tumor necrosis factor (Homo sapiens, UniProt P01375); test: analog potency on TNFa NF-kB signaling – cell-based, set 3, SAR follow-up (AID 2801); assay type: functional
Bcl-2-related protein A1 [14] = target: T4, Bcl-2-related protein A1 (Mus musculus, UniProt Q07440); test: small-molecule antagonists of Bfl-1/BH3 interaction – biochemical, TR-FRET, mouse Bfl-1, confirmation (AID 621);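 further: TR-FRET binding of GST-Bfl-1 to FITC-labelled Bid peptide via terbium antibody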
T4 sequence (Q07440 whole entry): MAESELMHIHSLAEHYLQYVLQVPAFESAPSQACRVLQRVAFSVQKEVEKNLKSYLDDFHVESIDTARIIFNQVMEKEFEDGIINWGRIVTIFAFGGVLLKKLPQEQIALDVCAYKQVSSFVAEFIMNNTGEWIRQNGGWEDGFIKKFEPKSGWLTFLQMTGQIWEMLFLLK

[15] = target: T5, Nucleotide-binding oligomerization domain-containing protein 1 (Homo sapiens, UniProt Q9Y239); test: SAR analysis of compounds that inhibit NOD1 - Set 3. [Related pubchem assays (depositor defined):AID1566, AID1575, AID1578, AID1849, AID1852, AID2333, AID2335, AID2466]; assay type: functional
T5 sequence (Q9Y239 whole entry): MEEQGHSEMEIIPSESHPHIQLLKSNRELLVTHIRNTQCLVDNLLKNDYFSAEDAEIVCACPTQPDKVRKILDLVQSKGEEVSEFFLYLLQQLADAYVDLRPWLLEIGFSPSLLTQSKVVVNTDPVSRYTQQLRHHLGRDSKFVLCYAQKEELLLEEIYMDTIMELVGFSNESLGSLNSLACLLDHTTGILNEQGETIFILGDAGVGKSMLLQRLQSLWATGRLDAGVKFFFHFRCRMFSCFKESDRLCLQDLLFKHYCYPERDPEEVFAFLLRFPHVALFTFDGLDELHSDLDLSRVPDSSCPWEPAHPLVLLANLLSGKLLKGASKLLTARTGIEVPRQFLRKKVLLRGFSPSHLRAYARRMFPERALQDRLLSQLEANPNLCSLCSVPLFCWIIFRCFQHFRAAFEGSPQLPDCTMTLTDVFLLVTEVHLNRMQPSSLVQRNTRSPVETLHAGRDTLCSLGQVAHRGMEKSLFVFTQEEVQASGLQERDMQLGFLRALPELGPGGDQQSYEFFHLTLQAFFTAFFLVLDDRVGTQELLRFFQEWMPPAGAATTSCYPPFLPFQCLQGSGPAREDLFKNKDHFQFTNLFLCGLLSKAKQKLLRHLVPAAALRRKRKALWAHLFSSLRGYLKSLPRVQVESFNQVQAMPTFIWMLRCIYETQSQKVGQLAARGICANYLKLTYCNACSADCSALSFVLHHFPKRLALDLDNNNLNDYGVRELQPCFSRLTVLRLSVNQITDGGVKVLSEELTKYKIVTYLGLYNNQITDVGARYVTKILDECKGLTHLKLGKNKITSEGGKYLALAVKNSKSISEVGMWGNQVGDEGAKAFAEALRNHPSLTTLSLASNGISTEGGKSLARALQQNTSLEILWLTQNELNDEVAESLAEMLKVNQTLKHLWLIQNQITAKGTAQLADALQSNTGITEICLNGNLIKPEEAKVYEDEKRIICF

Bcl-2-related protein A1 [16] = target: T4, Bcl-2-related protein A1; test: Bfl-1 binding inhibitors, SAR follow-up, biochemical, fluorescence polarization (AID 1070)
[17] = target: Protein-tyrosine kinase 2-beta (Homo sapiens, UniProt Q14289);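 further: potency of inhibitors of PYK2 kinase phosphorylation of poly-GT substrate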
[18] = target: Lysosomal acid glucosylceramidase (Homo sapiens, UniProt P04062); test: Dose response cell-based high throughput screening assay to identify enhancers of beta-glucosidase activity. [Related pubchem assays: 784 ]; assay type: functional
Sequence of Lysosomal acid glucosylceramidase (P04062 whole entry): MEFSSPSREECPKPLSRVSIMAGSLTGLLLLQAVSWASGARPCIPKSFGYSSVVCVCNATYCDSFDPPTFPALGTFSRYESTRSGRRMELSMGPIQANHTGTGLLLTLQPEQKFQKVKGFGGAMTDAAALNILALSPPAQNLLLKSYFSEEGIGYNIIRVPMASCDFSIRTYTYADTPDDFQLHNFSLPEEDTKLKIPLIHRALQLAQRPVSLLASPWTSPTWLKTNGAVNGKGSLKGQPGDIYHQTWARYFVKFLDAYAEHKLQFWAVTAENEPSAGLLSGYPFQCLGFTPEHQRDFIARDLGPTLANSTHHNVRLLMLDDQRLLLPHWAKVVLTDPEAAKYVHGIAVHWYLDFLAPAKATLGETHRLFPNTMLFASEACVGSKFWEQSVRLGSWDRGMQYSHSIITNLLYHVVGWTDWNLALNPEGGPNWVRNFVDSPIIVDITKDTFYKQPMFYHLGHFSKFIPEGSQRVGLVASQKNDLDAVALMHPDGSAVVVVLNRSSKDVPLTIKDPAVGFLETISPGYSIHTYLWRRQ

[19] = target: Peroxisome proliferator-activated receptor gamma/Nuclear receptor corepressor 2 (Homo sapiens, UniProt P37231+Q9Y618); assay type: functional
Sequence of Peroxisome proliferator-activated receptor gamma/Nuclear receptor corepressor 2 (P37231 whole entry): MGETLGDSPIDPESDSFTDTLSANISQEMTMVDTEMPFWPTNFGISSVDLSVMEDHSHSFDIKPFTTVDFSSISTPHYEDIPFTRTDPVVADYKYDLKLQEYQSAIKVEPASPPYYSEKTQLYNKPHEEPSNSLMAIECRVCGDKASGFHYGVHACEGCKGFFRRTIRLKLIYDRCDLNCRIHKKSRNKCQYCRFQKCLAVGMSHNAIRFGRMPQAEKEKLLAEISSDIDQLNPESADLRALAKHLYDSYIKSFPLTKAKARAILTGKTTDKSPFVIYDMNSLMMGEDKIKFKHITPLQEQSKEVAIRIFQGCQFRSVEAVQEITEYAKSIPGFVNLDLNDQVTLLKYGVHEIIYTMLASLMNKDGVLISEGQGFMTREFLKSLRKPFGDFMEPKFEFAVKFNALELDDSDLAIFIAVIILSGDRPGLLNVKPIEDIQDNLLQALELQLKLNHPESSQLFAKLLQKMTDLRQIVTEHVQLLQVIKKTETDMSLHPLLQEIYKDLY
Sequence of Peroxisome proliferator-activated receptor gamma/Nuclear receptor corepressor 2 (Q9Y618 whole entry): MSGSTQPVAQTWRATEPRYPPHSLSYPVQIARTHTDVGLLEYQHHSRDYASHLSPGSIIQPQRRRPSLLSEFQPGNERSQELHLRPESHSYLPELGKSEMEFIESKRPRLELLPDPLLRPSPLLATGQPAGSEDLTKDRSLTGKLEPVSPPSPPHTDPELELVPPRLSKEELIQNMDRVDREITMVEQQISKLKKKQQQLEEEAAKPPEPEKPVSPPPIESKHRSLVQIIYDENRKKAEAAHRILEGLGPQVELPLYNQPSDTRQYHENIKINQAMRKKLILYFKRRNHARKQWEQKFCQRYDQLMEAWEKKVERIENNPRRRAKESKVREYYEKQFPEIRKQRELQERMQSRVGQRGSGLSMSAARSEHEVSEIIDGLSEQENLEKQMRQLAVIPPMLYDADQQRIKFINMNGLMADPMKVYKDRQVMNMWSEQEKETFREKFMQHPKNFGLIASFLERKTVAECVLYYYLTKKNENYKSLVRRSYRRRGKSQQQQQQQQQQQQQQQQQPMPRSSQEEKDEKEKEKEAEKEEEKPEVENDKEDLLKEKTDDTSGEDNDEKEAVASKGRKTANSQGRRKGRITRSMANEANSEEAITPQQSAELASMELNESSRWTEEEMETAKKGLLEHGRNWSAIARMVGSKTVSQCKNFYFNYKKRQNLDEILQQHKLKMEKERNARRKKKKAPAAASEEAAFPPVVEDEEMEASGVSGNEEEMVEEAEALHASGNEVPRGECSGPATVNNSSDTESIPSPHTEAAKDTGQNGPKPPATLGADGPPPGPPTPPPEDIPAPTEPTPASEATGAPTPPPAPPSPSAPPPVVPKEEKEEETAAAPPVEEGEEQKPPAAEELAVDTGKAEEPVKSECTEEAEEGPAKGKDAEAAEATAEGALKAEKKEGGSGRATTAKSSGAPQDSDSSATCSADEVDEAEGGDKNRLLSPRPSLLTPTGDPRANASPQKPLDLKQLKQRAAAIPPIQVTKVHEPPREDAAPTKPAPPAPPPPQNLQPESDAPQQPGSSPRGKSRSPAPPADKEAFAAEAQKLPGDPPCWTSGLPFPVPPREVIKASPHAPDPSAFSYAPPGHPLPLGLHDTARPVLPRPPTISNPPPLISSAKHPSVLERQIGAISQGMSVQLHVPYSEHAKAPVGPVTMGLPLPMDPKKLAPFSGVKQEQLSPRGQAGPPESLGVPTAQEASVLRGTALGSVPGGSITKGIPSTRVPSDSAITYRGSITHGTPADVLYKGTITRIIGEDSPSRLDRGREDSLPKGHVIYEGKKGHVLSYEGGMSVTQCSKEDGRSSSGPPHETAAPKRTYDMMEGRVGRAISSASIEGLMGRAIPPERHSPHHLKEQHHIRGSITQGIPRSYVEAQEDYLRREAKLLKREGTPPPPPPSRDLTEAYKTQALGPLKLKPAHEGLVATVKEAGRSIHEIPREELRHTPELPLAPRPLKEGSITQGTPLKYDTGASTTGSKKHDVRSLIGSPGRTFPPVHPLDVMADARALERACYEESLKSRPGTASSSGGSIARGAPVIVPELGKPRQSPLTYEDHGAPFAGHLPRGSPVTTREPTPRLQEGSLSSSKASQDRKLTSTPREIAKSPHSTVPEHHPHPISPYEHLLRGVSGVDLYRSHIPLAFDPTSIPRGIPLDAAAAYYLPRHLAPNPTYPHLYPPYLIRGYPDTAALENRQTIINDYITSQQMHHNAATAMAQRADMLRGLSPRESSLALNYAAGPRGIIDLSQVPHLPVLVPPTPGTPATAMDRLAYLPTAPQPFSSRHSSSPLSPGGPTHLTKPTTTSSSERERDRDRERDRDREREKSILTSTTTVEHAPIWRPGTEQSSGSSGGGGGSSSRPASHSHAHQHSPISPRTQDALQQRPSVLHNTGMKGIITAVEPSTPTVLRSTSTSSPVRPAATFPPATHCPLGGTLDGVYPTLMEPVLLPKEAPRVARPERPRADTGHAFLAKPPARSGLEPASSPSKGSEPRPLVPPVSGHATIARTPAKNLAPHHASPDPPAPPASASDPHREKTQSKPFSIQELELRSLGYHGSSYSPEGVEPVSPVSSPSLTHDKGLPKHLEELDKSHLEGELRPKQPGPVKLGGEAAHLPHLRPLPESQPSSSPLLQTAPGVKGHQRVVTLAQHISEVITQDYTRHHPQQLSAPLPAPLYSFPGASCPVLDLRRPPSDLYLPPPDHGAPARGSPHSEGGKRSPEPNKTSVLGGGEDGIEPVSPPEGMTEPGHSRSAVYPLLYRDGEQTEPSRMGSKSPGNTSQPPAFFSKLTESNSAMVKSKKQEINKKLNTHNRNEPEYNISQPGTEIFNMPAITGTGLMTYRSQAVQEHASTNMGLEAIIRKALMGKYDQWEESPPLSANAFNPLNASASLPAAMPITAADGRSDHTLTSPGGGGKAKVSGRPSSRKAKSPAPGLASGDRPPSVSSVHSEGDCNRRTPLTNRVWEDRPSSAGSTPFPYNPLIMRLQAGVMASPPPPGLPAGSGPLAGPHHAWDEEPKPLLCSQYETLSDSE

[20] = target: Photoreceptor-specific nuclear receptor (Homo sapiens, UniProt Q9Y5X4); assay type: functional;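 further: potency for compounds that break the NR2E3 corepressor complex and count as activators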
Sequence of Photoreceptor-specific nuclear receptor (Q9Y5X4 whole entry): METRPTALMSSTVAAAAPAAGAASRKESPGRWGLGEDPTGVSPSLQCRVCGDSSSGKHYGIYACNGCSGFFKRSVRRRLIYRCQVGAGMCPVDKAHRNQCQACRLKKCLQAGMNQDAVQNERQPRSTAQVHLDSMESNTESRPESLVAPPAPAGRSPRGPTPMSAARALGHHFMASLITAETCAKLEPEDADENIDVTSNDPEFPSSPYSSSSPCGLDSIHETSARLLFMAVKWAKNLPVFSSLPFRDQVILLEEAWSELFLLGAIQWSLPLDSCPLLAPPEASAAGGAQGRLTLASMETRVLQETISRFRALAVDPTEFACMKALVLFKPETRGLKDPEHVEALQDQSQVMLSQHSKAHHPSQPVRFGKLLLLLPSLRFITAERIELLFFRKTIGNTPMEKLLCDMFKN

[21] = target: T6, Alkaline phosphatase, tissue-nonspecific isozyme (Homo sapiens, UniProt P05186)
T6 sequence (P05186 whole entry): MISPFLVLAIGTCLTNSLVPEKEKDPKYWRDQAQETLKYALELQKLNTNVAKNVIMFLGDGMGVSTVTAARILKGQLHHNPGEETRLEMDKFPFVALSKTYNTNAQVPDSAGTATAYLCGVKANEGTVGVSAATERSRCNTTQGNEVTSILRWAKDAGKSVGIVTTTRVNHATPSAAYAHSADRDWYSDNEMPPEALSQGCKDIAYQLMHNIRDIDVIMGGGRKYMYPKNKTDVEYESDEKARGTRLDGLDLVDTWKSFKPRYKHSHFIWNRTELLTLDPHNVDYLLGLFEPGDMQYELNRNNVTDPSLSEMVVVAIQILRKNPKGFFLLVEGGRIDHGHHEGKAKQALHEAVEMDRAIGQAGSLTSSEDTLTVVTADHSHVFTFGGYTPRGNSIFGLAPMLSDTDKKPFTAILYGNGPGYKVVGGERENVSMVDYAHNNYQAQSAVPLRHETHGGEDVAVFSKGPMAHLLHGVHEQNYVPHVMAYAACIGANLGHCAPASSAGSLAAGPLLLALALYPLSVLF

[22] = mRNA 3' processing disruption, beta-gal signal increase – luminescence, S. cerevisiae SKY197-pL101, dose response (AID 2525); assay type: functional, cell-based
[23] = Luminescence Cell-Based Dose Confirmation HTS to Identify Inhibitors of Polyadenylation.; assay type: functional

CC(NC(=O)Cn1c(NCCO)nc2ccccc21)C1CC2CCC1C2 (centres undefined)
IC50 [1]: > 35 µM (not active) | IC50 [2]: > 14.6 µM (not active) | IC50 [3]: > 35 µM (not active) | IC50 [4]: > 43.8 µM (not active)

c1ccc(-c2nc(-c3ccccn3)c(-c3ccccn3)[nH]2)cc1
IC50 (NADPH oxidase 1): > 17 µM (not active)

O=C(N/N=C/c1cc(O)ccc1Br)c1cccnc1
IC50 (Nonstructural protein 1): 6.35 µM (active) | IC50 [5]: 4.8 µM (active) | EC50 (cells [6]): > 350 µM (not active) | EC50 (Streptococcus): 4.86 µM (active) | EC50 (cells [7]): 165 µM (active) | EC50 [8]: 1.85 µM (active)

Cc1ccc2nc(SCC(=O)Nc3ccc4c(c3)CCC4)n(-c3ccccc3)c(=O)c2c1
CC50 (Vero [9]): > 200 µM (active) | IC50 [10]: 7.73 µM (active) | CC50 (Vero [11]): 130 µM (active)

O=C(COc1ccc(Cl)cc1Cl)Nc1nnc(-c2ccco2)s1
EC50 (Bcl-2-like protein 10): 17 µM (active)

Nc1cc(-c2ccc(Cl)cc2)nn1S(=O)(=O)c1c(F)c(F)c(F)c(F)c1F
IC50 [12]: > 100 µM (not active) | IC50 [13]: > 20 µM (inactive) | IC50 (HEK293): > 20 µM (inactive) | IC50 (Tumor necrosis factor): > 20 µM (inactive) | IC50 (Bcl-2-related protein A1 [14]): > 100 µM (not active) | IC50 [15]: > 20 µM (inactive) | IC50 (Bcl-2-related protein A1 [16]): > 100 µM (not active)

O=C(O)c1ccccc1OCCOCCOc1ccccc1C(=O)O
IC50 [17]: 18.2 µM (not active)

NC(=NO)c1nc(N2CCCCC2)nc(N2CCCCC2)n1
EC50 [18]: > 50 µM (not active)

Cc1ccccc1CNc1ncnc2cc(Cl)ccc12
IC50 [19]: 2.38 µM (active) | IC50 [20]: 3.84 µM (active)

Cn1c(=O)c2c(nc(N/N=C/c3ccco3)n2C)n(C)c1=O
EC50 [21]: 88.9 µM (not active)

O=C(COC(=O)Cc1ccc(S(=O)(=O)N2CCOCC2)s1)NCc1ccc(Cl)cc1
EC50 [22]: > 500 µM (not active) | EC50 [23]: 99.6 µM (active)
